Laboratory results: the Kinase Knowledgebase extract (Sharma et al. 2016)
Values joined by “and” are separate entries in the source; they are usually repeats but may differ in a detail not shown here. Identical values can stand only once.

Tests used:
MAPK14 (human) = MAPK14 (human) (UniProt Q16539); assay: LPS-induced TNF-alpha Release Inhibition (Human Blood)
MAPK14 (rat) [1] = assay: Secondary Paw Swelling Inhibition (Arthritis Rat)
MAPK14 (rat) [2] = system: MAPK14 (rat)
MAPK14 = MAPK14 (UniProt Q16539); assay: p38-alpha Kinase Inhibition
MAPK14, sequence (Q16539 whole entry, looked up): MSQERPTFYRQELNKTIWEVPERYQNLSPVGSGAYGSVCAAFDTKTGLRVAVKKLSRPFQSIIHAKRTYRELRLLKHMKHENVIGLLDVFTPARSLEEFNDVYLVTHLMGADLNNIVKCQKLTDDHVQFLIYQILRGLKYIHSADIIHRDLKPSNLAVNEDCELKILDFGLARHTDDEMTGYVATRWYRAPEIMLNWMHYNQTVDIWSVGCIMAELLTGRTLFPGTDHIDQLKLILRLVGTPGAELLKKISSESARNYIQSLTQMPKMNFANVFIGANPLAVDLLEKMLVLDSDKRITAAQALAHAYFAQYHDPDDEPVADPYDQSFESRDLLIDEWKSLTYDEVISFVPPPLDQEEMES

MAPK14 (human), sequence (Q16539 whole entry, looked up): as above

Row | Compound | IC50 (MAPK14 (human)) | other results
1 | Nc1nccc(-c2[nH]c(C3CCNCC3)nc2-c2cccc(C(F)(F)F)c2)n1 | 190 nM | 
2 | Nc1nccc(-c2[nH]c(-c3ccccc3)nc2-c2ccccc2)n1 | > 100000 nM | 
3 | FC(F)(F)c1cccc(-c2nc(-c3ccccc3)[nH]c2-c2ccncc2)c1 | > 100000 nM | 
4 | COc1ccc(CNc2nccc(-c3[nH]c(-c4ccccc4)nc3-c3ccccc3)n2)cc1 | > 100000 nM | 
5 | c1ccc(-c2nc(-c3ccccc3)c(-c3ccncn3)[nH]2)cc1 | > 100000 nM | 
6 | C[C@H](Nc1cc(-c2c(-c3cccc(C(F)(F)F)c3)nc(C3CCNCC3)n2C)ccn1)c1ccccc1 |  | ED50 (MAPK14 (rat) [1]): 8.2 mg/kg/day; inhibition (MAPK14 (rat) [1]; dose or concentration not given here): 76%; ID50 (MAPK14 (rat) [2]): 17.5 mg/kg/day
7 | COc1ccc2c(c1)c(CC(=O)O)c(C)n2C(=O)c1ccc(Cl)cc1 |  | score (MAPK14 (rat) [1]): 5.5 and 4.9
8 | Fc1ccc(-c2nc(C3CCNCC3)[nH]c2-c2ccncc2)cc1 | 175 nM | 
9 | C[C@H](Nc1nccc(-c2nc(C3CCNCC3)n(C)c2-c2cccc(C(F)(F)F)c2)n1)c1ccccc1 | 24000 nM | 
10 | Fc1ccc(-c2nc(C3CCCNC3)[nH]c2-c2ccncc2)cc1 (stereo not given) | 585 nM | 
11 | C[C@H](Nc1nccc(-c2[nH]c(-c3ccccc3)nc2-c2cccc(C(F)(F)F)c2)n1)c1ccccc1 | 6 nM | IC50 (MAPK14): 0.75 nM
12 | COc1ccc(CNc2nccc(-c3[nH]c(C4CCNCC4)nc3-c3cccc(C(F)(F)F)c3)n2)cc1 | 290 nM | 
13 | Fc1ccc(-c2nc[nH]c2-c2ccncc2)cc1 | > 10000 nM | 
14 | CNc1nccc(-c2[nH]c(-c3ccccc3)nc2-c2ccccc2)n1 | > 100000 nM | 
15 | C[C@@H](Nc1nccc(-c2[nH]c(-c3ccccc3)nc2-c2cccc(C(F)(F)F)c2)n1)c1ccccc1 | 0.4 nM | IC50 (MAPK14): 0.97 nM
16 | Fc1ccc(-c2nc(C3CCCCC3)[nH]c2-c2ccncc2)cc1 | 34 nM | 
